15 compounds from PubChem BioAssay AID180 (DTP/NCI, 2004) can be followed below.

The subject of the assay is BDF1 mice, Adenocarcinoma 755 s.c., tumor weight T/C. In words: NCI In Vivo Anticancer Drug Screen. Data for tumor model Adenocarcinoma 755 (subcutaneous) in B6D2F1 (BDF1) mice. Conditions: endpoint: mean tumor weight, higher = larger tumour. An outline of the steps:
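Tumor-bearing mice receive test compound while controls get vehicle alone. Antitumor effect is scored from survival or tumor dimensions as a T/C quotient.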

Where [1] appears, read: dose: 6.0 mg/kg/injection, schedule: Q01DX011 (ip), vehicle: carboxymethylcellulose (CMC).
The mark [2] stands for this setting: dose: 125.0 mg/kg/injection, schedule: Q01DX011 (ip), vehicle: methylcellulose (MC).
Setting [3] is: dose: 250.0 mg/kg/injection, schedule: Q01DX011 (ip), vehicle: methylcellulose (MC).
[4] abbreviates: dose: 30.0 mg/kg/injection, schedule: Q01DX011 (ip), vehicle: carboxymethylcellulose (CMC).

Where “and” joins values, the source holds several entries; their conditions need not be identical. Equal values may be shown once.

`O=P(N1CCCC1)(N1CC1)N1CC1`: the T/C runs as follows: (dose: 0.2 mg/kg/injection, schedule: Q01DX011 (ip), vehicle: saline) 94 % of control and 75 % of control; (dose: 0.25 mg/kg/injection, schedule: Q01DX011 (ip), vehicle: carboxymethylcellulose (CMC)) 110 % of control; (dose: 0.5 mg/kg/injection, schedule: Q01DX011 (ip), vehicle: saline) 54 % of control and 79 % of control; (dose: 1.0 mg/kg/injection, schedule: Q01DX011 (ip), vehicle: carboxymethylcellulose (CMC)) 42 % of control; (dose: 1.0 mg/kg/injection, schedule: Q01DX011 (ip), vehicle: saline) 8 % of control and 21 % of control; (dose: 2.0 mg/kg/injection, schedule: Q01DX011 (ip), vehicle: carboxymethylcellulose (CMC)) 46 % of control. Moreover, the T/C reads like this: (dose: 2.0 mg/kg/injection, schedule: Q01DX011 (ip), vehicle: saline) 3 % of control; (dose: 4.0 mg/kg/injection, schedule: Q01DX011 (ip), vehicle: carboxymethylcellulose (CMC)) 23 % of control; under setting [1], 8 % of control; (dose: 8.0 mg/kg/injection, schedule: Q01DX011 (ip), vehicle: carboxymethylcellulose (CMC)) 11 % of control; (dose: 12.0 mg/kg/injection, schedule: Q01DX011 (ip), vehicle: saline) 3 % of control.

With `CC(=O)OCC1CCCC(n2cnc3c(Cl)ncnc32)O1` (stereo not drawn), the T/C by setting is: (dose: 62.5 mg/kg/injection, schedule: Q01DX011 (ip), vehicle: methylcellulose (MC)) 74 % of control; under setting [2], 52 % of control; under setting [3], 26 % of control.

In the case of `CCCCOC(OCCCC)C(OCCCC)OCCCC`, the T/C was 105 % of control (dose: 50.0 mg/kg/injection, schedule: Q01DX011 (ip), vehicle: other); 106 % of control (dose: 100.0 mg/kg/injection, schedule: Q01DX011 (ip), vehicle: other); 63 % of control (dose: 200.0 mg/kg/injection, schedule: Q01DX011 (ip), vehicle: other).

On to `CN1CCC(OC(N)=O)CC1`, for which the T/C by setting is: (dose: 44.0 mg/kg/injection, schedule: Q01DX011 (ip), vehicle: carboxymethylcellulose (CMC)) 84 % of control; (dose: 87.5 mg/kg/injection, schedule: Q01DX011 (ip), vehicle: carboxymethylcellulose (CMC)) 96 % of control; (dose: 100.0 mg/kg/injection, schedule: Q01DX011 (ip), vehicle: carboxymethylcellulose (CMC)) 70 % of control; (dose: 155.0 mg/kg/injection, schedule: Q01DX011 (ip), vehicle: carboxymethylcellulose (CMC)) 54 % of control; (dose: 175.0 mg/kg/injection, schedule: Q01DX011 (ip), vehicle: carboxymethylcellulose (CMC)) 65 % of control; (dose: 230.0 mg/kg/injection, schedule: Q01DX011 (ip), vehicle: carboxymethylcellulose (CMC)) 46 % of control. In addition, the T/C (dose: 525.0 mg/kg/injection, schedule: Q01DX011 (ip), vehicle: carboxymethylcellulose (CMC)) is 43 % of control.

`C[C@H](CCC(=O)O)[C@H]1CC[C@H]2[C@@H]3[C@H](O)C[C@@H]4C[C@H](O)CC[C@]4(C)[C@H]3C[C@H](O)[C@]12C` (tested in a mixture with another compound): the T/C by setting is: (dose: 80.0 mg/kg/injection, schedule: Q01DX011 (ip), vehicle: methylcellulose (MC)) 31 % of control and 53 % of control; (dose: 160.0 mg/kg/injection, schedule: Q01DX011 (ip), vehicle: methylcellulose (MC)) 76 % of control; (dose: 320.0 mg/kg/injection, schedule: Q01DX011 (ip), vehicle: methylcellulose (MC)) 36 % of control.

Consider `COC(=O)c1nc(-c2ccc3c(n2)C(=O)C(N)=C(OC)C3=O)c(N)c(-c2ccc(OC)c(OC)c2O)c1C`, for which the T/C runs as follows: (dose: 0.31 mg/kg/injection, schedule: Q01DX011 (ip), vehicle: other) 42 % of control; (dose: 0.63 mg/kg/injection, schedule: Q01DX011 (ip), vehicle: other) 14 % of control; (dose: 1.25 mg/kg/injection, schedule: Q01DX011 (ip), vehicle: other) 1 % of control; (dose: 6.0 mg/kg/injection, schedule: Q01DX006 (ip), vehicle: water) 40 % of control; (dose: 12.5 mg/kg/injection, schedule: Q01DX006 (ip), vehicle: water) 7 % of control.

Take `O=c1[nH]cnc2n[nH]nc12`: the T/C reads like this: (dose: 125.0 mg/kg/injection, schedule: Q01DX011 (oral), vehicle: methylcellulose (MC)) 55 % of control; (dose: 250.0 mg/kg/injection, schedule: Q02DX006 (ip), vehicle: methylcellulose (MC)) 5 % of control; (dose: 250.0 mg/kg/injection, schedule: Q03DX004 (ip), vehicle: methylcellulose (MC)) 21 % of control.

Take `Cn1cnc2c(Cl)nc(C(F)(F)F)nc21`: under setting [4], the T/C is 80 % of control.

For `Cc1ccccc1Nc1cc(Cl)nc(N)n1`, the T/C by setting is: (dose: 15.0 mg/kg/injection, schedule: Q01DX011 (ip), vehicle: methylcellulose (MC)) 73 % of control; (dose: 31.0 mg/kg/injection, schedule: Q01DX011 (ip), vehicle: methylcellulose (MC)) 85 % of control; (dose: 62.0 mg/kg/injection, schedule: Q01DX011 (ip), vehicle: methylcellulose (MC)) 75 % of control; under setting [2], 120 % of control; under setting [3], 93 % of control.

With `C[C@H]1C[C@@H]2[C@H]([C@@H](O)C[C@@]3(C)[C@H]2CC[C@]3(O)C(=O)CO)[C@@]2(C)C=CC(=O)C=C12`, the T/C runs as follows: (dose: 14.3 mg/kg/injection, schedule: Q01DX011 (sc), vehicle: steriod suspending solution) 21 % of control; (dose: 14.3 mg/kg/injection, schedule: Q01DX011 (sc), vehicle: water) 48 % of control and 56 % of control; (dose: 28.5 mg/kg/injection, schedule: Q01DX011 (sc), vehicle: steriod suspending solution) 8 % of control; (dose: 28.5 mg/kg/injection, schedule: Q01DX011 (sc), vehicle: water) 25 % of control and 47 % of control; (dose: 57.0 mg/kg/injection, schedule: Q01DX011 (sc), vehicle: steriod suspending solution) 1 % of control; (dose: 57.0 mg/kg/injection, schedule: Q01DX011 (sc), vehicle: water) 5 % of control and 29 % of control. For the same compound, the T/C runs as follows: (dose: 114.0 mg/kg/injection, schedule: Q01DX011 (sc), vehicle: steriod suspending solution) 1 % of control; (dose: 114.0 mg/kg/injection, schedule: Q01DX011 (sc), vehicle: water) 3 % of control.

Take `C[C@]12CCC(=O)C=C1CC[C@@H]1[C@@H]2[C@@H](O)C[C@]2(C)C(=O)CC[C@@H]12`: the T/C (dose: 100.0 mg/kg/injection, schedule: Q01DX011 (sc), vehicle: steriod suspending solution) was 107 % of control and the T/C (dose: 200.0 mg/kg/injection, schedule: Q01DX011 (sc), vehicle: steriod suspending solution) is 83 % of control.

`[Br][Hg][CH2]C1COC([CH2][Hg][Br])CO1` (stereo not drawn): the T/C reads like this: under setting [1], 101 % of control; (dose: 12.0 mg/kg/injection, schedule: Q01DX011 (ip), vehicle: carboxymethylcellulose (CMC)) 60 % of control; (dose: 50.0 mg/kg/injection, schedule: Q01DX011 (ip), vehicle: carboxymethylcellulose (CMC)) 27 % of control.

For `Nc1[nH]cnc(=S)c1NC=O`, the T/C is 84 % of control under setting [4]; 63 % of control (dose: 60.0 mg/kg/injection, schedule: Q01DX011 (ip), vehicle: carboxymethylcellulose (CMC)); 86 % of control (dose: 120.0 mg/kg/injection, schedule: Q01DX011 (ip), vehicle: carboxymethylcellulose (CMC)); 101 % of control (dose: 200.0 mg/kg/injection, schedule: Q01DX011 (ip), vehicle: carboxymethylcellulose (CMC)); 26 % of control (dose: 240.0 mg/kg/injection, schedule: Q01DX011 (ip), vehicle: carboxymethylcellulose (CMC)); 29 % of control (dose: 400.0 mg/kg/injection, schedule: Q01DX011 (ip), vehicle: carboxymethylcellulose (CMC)).

Regarding `CCCCCCCCCCCCCCCCCCN(C)C`, the T/C is, setting by setting: (dose: 12.0 mg/kg/injection, schedule: Q01DX011 (ip), vehicle: distilled water + alcohol) 61 % of control; (dose: 18.0 mg/kg/injection, schedule: Q01DX011 (ip), vehicle: distilled water + alcohol) 43 % of control; (dose: 27.0 mg/kg/injection, schedule: Q01DX011 (ip), vehicle: distilled water + alcohol) 51 % of control; (dose: 40.0 mg/kg/injection, schedule: Q01DX011 (ip), vehicle: distilled water + alcohol) 36 % of control.

As to `O=C(NCCCl)N1CCN(C(=O)NCCCl)CC1`, the T/C was 55 % of control (dose: 50.0 mg/kg/injection, schedule: Q01DX011 (ip), vehicle: methylcellulose (MC)); 67 % of control (dose: 100.0 mg/kg/injection, schedule: Q01DX011 (ip), vehicle: methylcellulose (MC)); 39 % of control (dose: 200.0 mg/kg/injection, schedule: Q01DX011 (ip), vehicle: methylcellulose (MC)); 24 % of control (dose: 400.0 mg/kg/injection, schedule: Q01DX011 (ip), vehicle: methylcellulose (MC)).
